Source: patent US20250288704A1, “CXCR4-LIGANDS FOR DIAGNOSTIC AND THERAPEUTIC USE AND PRECURSORS THEREOF” (priority 2021, published 2025)
Like-named read-outs stand apart in the source and are kept apart here. Values belong to the compound of their own block, whether it stands above or below them. Starred links: 1 amine or outer side, 2 acyl side, 3 side chain; linkers in the order of their positions; H or OH if unused. Positions of bridges follow the written chain, without caps; N, C: chain ends. Non-standard residues stand in square brackets, D forms with d. Residues, ends and D or L forms follow the SMILES beside them. Groups on a side chain read outwards from the residue. Chains are numbered I, II in the order given. *: point of attachment. X6 = CN1/C(=C/C=C/C=C/C2=[N+](CCCCCC(=O)*)c3ccc(S(=O)(=O)[O-])cc3C2(C)C)C(C)(C)c2cc(S(=O)(=O)O)ccc21; X7 = O=C(O)CN1CCN(CC(=O)O)CCN([C@H](CCC(=O)*)C(=O)O)CCN(CC(=O)O)CC1; Benzoyl(4-SiFtBu2) = CC(C)(C)[Si](F)(c1ccc(C(=O)*)cc1)C(C)(C)C; DOTA = O=C(O)CN1CCN(CC(=O)O)CCN(CC(=O)*)CCN(CC(=O)O)CC1; d(γGlu) = O=C(O)[C@@H](CCC(=O)[*:2])N[*:1]; Tyr(3-I) = N[C@@H](Cc1ccc(O)c(I)c1)C(=O)O; 2Nal = N[C@@H](Cc1ccc2ccccc2c1)C(=O)O; d2Nal = N[C@H](Cc1ccc2ccccc2c1)C(=O)O; dNMeOrn = CN[C@H](CCCN)C(=O)O; 4Amb = NCc1ccc(C(=O)O)cc1; 4Abz = Nc1ccc(C(=O)O)cc1; dDap = NC[C@@H](N)C(=O)O; CO = O=C([*:1])[*:2]; Ahx = NCCCCCC(=O)O

Tests used:
[1] = tested on: CXCR4-expressing Chem_1 cells; assay: Determination of internalization, dual tracer with 125I-Fc-131; assay type: cell-based; details: for Cell-bound [%] / Internalized [%]: of total cellular activity
Protocol: CXCR4-expressing Chem_1 cells were grown in DMEM-F12 medium supplemented with 10 vol % FBS, 1 vol % NEA, 1 vol % PenStrep and 1 vol % HEPES (1.00 M). Cells were maintained in a 5% CO2 atmosphere at 37° C.
For in vitro experiments, cells were harvested by removal of the medium and incubation of the cells with trypsine/EDTA (0.05%/0.02%; w/v) for 30 in at 37° C.
Each well (n=3 for every time point) was either treated with 25 μL DMEM-F12 (+5 wt % BSA) or 25 μL of an AMD3100 stock (1 mM in H2O) for blockage of the receptors.
The experiment was stopped by placing the well-plate on ice and removing the supernatant. The cells were washed with 250 μL cold HBSS and the both fractions for each well combined, comprising the amount of unbound radioligand.
The supernatant was removed, the cells washed with cold HBSS and the respective fractions combined to obtain the amount of surface-bound radioligand.
The cells were then incubated with 300 μL NaOH (1.00 M in H2O) for at least 30 at r.t. before the supernatant was removed. The well was washed with another 300 μL NaOH and the fractions combined that contain the amount of internalized radioligand.
The three different fractions were subjected to activity measurement in the γ-counter, measuring the activity of the radionuclide used for the labeling of the peptide under investigation first. […] Data was corrected for non-specific internalization and referred to the specific internalization of the standard ligand

[2] = Octanol/PBS partition coefficient (logD7.4); assay type: physicochemical; details: n-octanol/PBS pH 7.4, radiolabeled compound
Protocol: The tubes were vortexed at maximum speed for 3 min to ensure equilibrium before centrifugation at 15.000×g for 5 min on a Biofuge 15 from Heraeus Holding GmbH (Osterode, Germany). An aliquot of 100 μL of each fraction was measured in the γ-counter and the log D7.4 calculated as follows: […]

CXCR4 = CXCR4 (Homo sapiens, UniProt P61073); assay: Determination of IC50: competition with 125I-Fc-131 on CXCR4-positive Jurkat cells; assay type: binding; parameters: CXCR4-positive Jurkat T lymphocyte cells were grown in Gibco's RPMI 1640 GlutaMAX medium; endogenous in cells; host or cells: Jurkat T lymphocyte cells (whole cells in suspension, 400.000 per tube);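 note: test compound at 10^−5 to 10^−11 M competed for 2 h at 8 °C with the radioligand on 400,000 cells per well, bound versus free activity measured by γ-counting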
CXCR4, sequence (P61073 whole entry): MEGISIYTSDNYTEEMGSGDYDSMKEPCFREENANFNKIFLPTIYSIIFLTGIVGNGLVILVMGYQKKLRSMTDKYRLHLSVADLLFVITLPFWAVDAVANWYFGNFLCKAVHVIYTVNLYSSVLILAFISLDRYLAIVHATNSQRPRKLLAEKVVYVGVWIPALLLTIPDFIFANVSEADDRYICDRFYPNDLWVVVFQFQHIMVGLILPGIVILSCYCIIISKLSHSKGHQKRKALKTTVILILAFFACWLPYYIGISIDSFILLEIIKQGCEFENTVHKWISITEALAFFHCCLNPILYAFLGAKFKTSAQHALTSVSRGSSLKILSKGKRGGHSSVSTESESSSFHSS

[3] = Biodistribution in Jurkat tumor-bearing CB-17 SCID mice; assay type: in vivo; details: female, CB-17 SCID, mouse, in vivo, iv, total radioactivity, 1 h p.i., Jurkat xenograft, CB-17 SCID female mice
Protocol: All animal experiments were conducted in accordance with general animal welfare regulations in Germany and the institutional guidelines for the care and use of animals. To establish tumor xenografts, Jurkat cells (2-3×10^7 cells) were suspended in a mixture of Gibco's RPMI 1640 medium and Matrigel (1/1; v/v) from BD Biosciences (Heidelberg, Germany), and inoculated subcutaneously onto the right shoulder of 6-10 weeks old CB17-SCID mice from either Charles River GmbH (Sulzfeld, Germany) or the in-house mouse breeding facility. Mice were used when tumors had grown to a diameter of 5-8 mm (4-10 weeks after inoculation).
Approximately 0.5-20 MBq (0.02-0.20 nmol) of the ^125I-, ^177Lu-, ^99mTc-, ^18F- or ^68Ga-labeled ligand were injected into the tail vein of Jurkat tumor-bearing CB-17 SCID mice and the animals sacrificed after the respective biodistribution time. Selected organs were removed, weighted and measured in a γ-counter.

[4] = unlabeled or cold (natGa/natLu) compound vs 125I-Fc-131, Jurkat cells

logD7.4 [2]: −3.41 ± 0.05 (6)
IC50 (CXCR4; unlabeled or cold (natGa/natLu) compound vs 125I-Fc-131, Jurkat cells, read-out: IC50): 5.05 ± 1.75 nM
SMILES: C[C@@H](NC(=O)[C@@H](CCCNC(=N)N)NC(=O)[C@@H](CN)NC(=O)CN1CCN(CC(=O)O)CCN(CC(=O)O)CCN(CC(=O)O)CC1)C(=O)NCc1ccc(C(=O)NCCC[C@@H]2C(=O)N[C@@H](CCCNC(=N)N)C(=O)N[C@@H](Cc3ccc4ccccc4c3)C(=O)NCC(=O)N[C@H](Cc3ccc(O)cc3)C(=O)N2C)cc1 [CXCR4-DOTA-1 [Lu]] (cyclo([dY][dNMeOrn]([4Amb-dA-dR-dDap-DOTA])R[2Nal]G))
Internalized in relation to 125I-Fc-131 [%] ([1]; 15 min): 78.3 ± 6.93%
Cell-bound [%] ([1]; 15 min): 4.27 ± 0.38%
Internalized [%] ([1]; 15 min): 2.61 ± 0.20%
Internalized in relation to 125I-Fc-131 [%] ([1]; 30 min): 95.0 ± 9.39%
Cell-bound [%] ([1]; 30 min): 4.43 ± 0.08%
Internalized [%] ([1]; 30 min): 3.28 ± 0.27%
Internalized in relation to 125I-Fc-131 [%] ([1]; 60 min): 109 ± 24.6%
Cell-bound [%] ([1]; 60 min): 6.02 ± 0.67%
Internalized [%] ([1]; 60 min): 5.04 ± 0.92%
Internalized in relation to 125I-Fc-131 [%] ([1]; 120 min): 133 ± 7.31%
Internalization [% Fc-131] 2 h ([1]; 2 h, 177Lu-labeled): 133 % Fc-131
Cell-bound [%] ([1]; 120 min): 4.97 ± 0.31%
Internalized [%] ([1]; 120 min): 7.08 ± 0.22%

SMILES: CC[C@H](C)[C@@H]([C@@H](CC(=O)N1CCC[C@H]1[C@H](OC)[C@@H](C)C(=O)N[C@H](C)[C@@H](O)c1ccccc1)OC)N(C)C(=O)[C@@H](NC(=O)[C@H](C(C)C)N(C)C(=O)OCc1ccc(NC(=O)[C@H](CCCNC(N)=O)NC(=O)[C@@H](NC(=O)CCCCCN2C(=O)CC(SCC[C@@H](N)C(=O)N[C@H](Cc3c[nH]cn3)C(=O)N[C@H](CCCNC(=N)N)C(=O)N[C@H](C)C(=O)Nc3ccc(C(=O)NCCC[C@@H]4C(=O)N[C@@H](CCCNC(=N)N)C(=O)N[C@@H](Cc5ccc6ccccc6c5)C(=O)NCC(=O)N[C@H](Cc5ccc(O)cc5)C(=O)N4C)cc3)C2=O)C(C)C)cc1)C(C)C (stereo partly drawn) [CXCR4-MMAE-3]
Internalization 2 h [% of bound peptide] ([1]; 2 h, 125I-labeled): 24.9 ± 0.85 % of bound peptide
logD7.4 [2]: 0.80 ± 0.12 (6)
IC50 (CXCR4): 43.9 ± 6.18 nM

SMILES: C[C@@H](NC(=O)[C@@H](CCCNC(=N)N)NC(=O)[C@@H](CN)NC(=O)CCCCC[N+]1=C(/C=C/C=C/C=C2/N(C)c3ccc(S(=O)(=O)O)cc3C2(C)C)C(C)(C)c2cc(S(=O)(=O)[O-])ccc21)C(=O)Nc1ccc(C(=O)NCCC[C@@H]2C(=O)N[C@@H](CCCNC(=N)N)C(=O)N[C@H](Cc3ccc4ccccc4c3)C(=O)NCC(=O)N[C@@H](Cc3ccc(O)c(I)c3)C(=O)N2C)cc1 [CXCR4-OI-2] (cyclo([Tyr(3-I)][dNMeOrn]([4Abz-dA-dR-dDap-X6])R[d2Nal]G))
logD7.4 [2]: −1.83 ± 0.02 (5)
tissue uptake at 1 h ([3]; Blood, read-out: % iD/g Blood): 1.73 %ID/g
tissue uptake at 1 h ([3]; Bone, read-out: % iD/g Bone): 1.2 %ID/g
tissue uptake at 1 h ([3]; Heart, read-out: % iD/g Heart): 1.84 %ID/g
tissue uptake at 1 h ([3]; Intestine, read-out: % iD/g Intestine): 1.88 %ID/g
tissue uptake at 1 h ([3]; Kidney, read-out: % iD/g Kidney): 13.9 %ID/g
tissue uptake at 1 h ([3]; Liver, read-out: % iD/g Liver): 35.3 %ID/g
tissue uptake at 1 h ([3]; Lung, read-out: % iD/g Lung): 5.54 %ID/g
tissue uptake at 1 h ([3]; Muscle, read-out: % iD/g Muscle): 0.41 %ID/g
tissue uptake at 1 h ([3]; Pancreas, read-out: % iD/g Pancreas): 1.1 %ID/g
tissue uptake at 1 h ([3]; Spleen, read-out: % iD/g Spleen): 16.1 %ID/g
tissue uptake at 1 h ([3]; Stomach, read-out: % iD/g Stomach): 4.01 %ID/g
tissue uptake at 1 h ([3]; Thyroid, read-out: % iD/g Thyroid): 1.46 %ID/g
tissue uptake at 1 h ([3]; Tumor, read-out: % iD/g Tumor): 1.1 %ID/g
IC50 (CXCR4; [4]): 10.2 ± 3.95 nM

SMILES: C[C@@H](NC(=O)[C@@H](CCCNC(=N)N)NC(=O)[C@@H](CN)NC(=O)CCCCCNC(=O)[C@@H](CNC(=O)CC[C@H](C(=O)O)N1CCN(CC(=O)O)CCN(CC(=O)O)CCN(CC(=O)O)CC1)NC(=O)[C@@H](CNC(=O)c1ccc([Si](F)(C(C)(C)C)C(C)(C)C)cc1)NC(=O)CC[C@@H](NC(=O)N[C@H](CCC(=O)O)C(=O)O)C(=O)O)C(=O)Nc1ccc(C(=O)NCCC[C@@H]2C(=O)N[C@@H](CCCNC(=N)N)C(=O)N[C@@H](Cc3ccc4ccccc4c3)C(=O)NCC(=O)N[C@H](Cc3ccc(O)cc3)C(=O)N2C)cc1 [CXCR4-SiFA-5 [Ga]] (I: {dE-CO-d(γGlu)}-[dDap](Benzoyl(4-SiFtBu2))[dDap](X7)[Ahx][dDap][dR][dA][4Abz] / II: cyclo([dY][dNMeOrn]R[2Nal]G); amide I:C-II:2)
Internalized in relation to 125I-Fc-131 [%] ([1]; 30 min): 233 ± 44.1%
Cell-bound [%] ([1]; 30 min): 0.66 ± 0.22%
Internalized [%] ([1]; 30 min): 3.46 ± 0.57%
Internalization [% Fc-131] ([1]; 90 min): 209 % Fc-131
Internalized in relation to 125I-Fc-131 [%] ([1]; 90 min): 209 ± 27.2%
Cell-bound [%] ([1]; 90 min): 0.72 ± 0.34%
Internalized [%] ([1]; 90 min): 3.70 ± 0.41%
logD7.4 [2]: −1.85 ± 0.07 (7)
IC50 (CXCR4; [4]): 36.5 ± 4.51 nM

SMILES: C[C@@H](NC(=O)[C@@H](CCCNC(=N)N)NC(=O)[C@@H](CN)NC(=O)CCCCCNC(=O)[C@@H](CNC(=O)CC[C@H](C(=O)O)N1CCN(CC(=O)O)CCN(CC(=O)O)CCN(CC(=O)O)CC1)NC(=O)C[N+](C)(C)Cc1ccc([Si](F)(C(C)(C)C)C(C)(C)C)cc1)C(=O)Nc1ccc(C(=O)NCCC[C@@H]2C(=O)N[C@@H](CCCNC(=N)N)C(=O)N[C@@H](Cc3ccc4ccccc4c3)C(=O)NCC(=O)N[C@H](Cc3ccc(O)cc3)C(=O)N2C)cc1 [CXCR4-SiFA-6 [Ga]]
Internalized in relation to 125I-Fc-131 [%] ([1]; 30 min): 829 ± 48.1%
Cell-bound [%] ([1]; 30 min): 0 ± 0.29%
Internalized [%] ([1]; 30 min): 37.0 ± 1.06%
Internalization [% Fc-131] ([1]; 90 min): 980 % Fc-131
Internalized in relation to 125I-Fc-131 [%] ([1]; 90 min): 980 ± 85.6%
Cell-bound [%] ([1]; 90 min): 0.81 ± 0.14%
Internalized [%] ([1]; 90 min): 48.1 ± 1.26%
logD7.4 [2]: −1.05 ± 0.06 (8)
IC50 (CXCR4; [4]): 5.52 ± 0.71 nM
